Laboratory results reported in patent publication US4997838A, “Pyrrolopyrimidine derivatives, their production and use” (Takeda Chemical Industries, Ltd., priority 1988, dated 1991).
Values after ≈ are worked out from the molar mass of the structure shown.

Assays:
[1] = tested on: dihydrofolic acid reductase; conditions: in words; cited from earlier work
solid cancer = conditions: in words; clinical use; cited from earlier work
[2] = tested on: Human nasopharyngeal cancer KB cells; test: cell growth inhibiting effect in KB cells (MTT); type: cell-based; conditions: 72 hours
Protocol: Human nasopharyngeal cancer KB cells (1×10^4 cells/ml) prepared according to a conventional method were inoculated into each well of the 96-microwell plate (0.1 ml in a well) and subjected to standing culture at 37° C. under 5% CO2 for 24 hours. To this was added a solution of one of the compounds obtained in the Working Examples in 10% MEM (Nissui Pharmaceutical Co. Ltd.), and subjected again to standing culture at 37° C. under 5% CO2 for 72 hours. Then the culture was pipetted out, and another 0.1 ml of the solution of MTT (Dojindo Laboratories) in 10% MEM (1.0 mg/ml) was added and incubated at 37° C. for 4 hours. Then 0.1 ml of the 10% SDS solution (Wako Pure Chemicals) was added and incubated at 37° C. for further 24 hours. The absorbance at 590 nm was measured and the IC50 value of the compound was defined as the concentration of the compound required to decrease the number of cells in the untreated control group by 50%.

[3] = tested on: Human fetal normal lung fibroblasts HEL; test: cell growth inhibiting effect in HEL cells (MTT); type: cell-based; conditions: Fibroblast, 72 hours
Protocol: (2) Human fetal normal lung fibroblasts HEL (1×10^4 cells/ml) were suspended in the MEM culture medium (Nippon Flow Laboratories) and 0.1 ml of the suspension was inoculated into each well of the 96-microwellplate. After standing culture at 37° C. under 5% CO2 for 24 hours, MEM culture medium containing the compound of this invention was added and the mixture was incubated for further 72 hours. The medium was replaced by the medium containing 1 μg/ml of MTT (Dojindo Laboratories), to which was added 10% SDS (Wako Pure Chemicals), and incubated overnight. Absorbance at 590 nm was measured by he Multiscan (Titertec Co.). The IC50 value was determined by comparing the absorbance in the untreated control group.

[4] = tested on: Human Leukemia cells HL-60; test: cell growth inhibiting effect in HL-60 cells ([3H]-thymidine incorporation); type: cell-based; conditions: HL-60, 68 hours + 4 hours [3H]-thymidine
Protocol: (1) Human Leukemia cells HL-60 (2×10^5 cells/ml) were suspended in the GIT culture medium (Wako Pure Chemicals) containing the compound of this invention and 0.2 ml of the suspension was inoculated into each well of the 96-microwell plate. After standing culture at 37° C. under 5% CO2 for 68 hours, 1 μCi of [^3 H]-thymidine (5 Ci/mmol) was added and the mixture was incubated for 4 further hours. For measurement of the incorporation of thymidine into the cells, the acid-insoluble fraction was collected on a glass filter, and the radioactivity of the fraction was measured by a liquid scintillation counter. The IC50 value of the compound was defined as the concentration of the compound required to decrease the radioactivity incorporated into the cells in the untreated control group by 50%.

**Q.** Which “inhibition of dihydrofolic acid reductase” value [1] does the source give for CN(Cc1cnc2nc(N)nc(N)c2n1)c1ccc(C(=O)N[C@@H](CCC(=O)O)C(=O)O)cc1 [MTX] here?
**A.** inhibit the reduction from dihydrofolic acid into tetrahydrofolic acid by coupling strongly with the dominant enzyme

**Q.** What about the “effect on solid cancer” value (solid cancer) of the same compound?
**A.** little effect on solid cancer

**Q.** And the toxicity (solid cancer)?
**A.** relatively strong toxicity

**Q.** With Nc1nc(N)c2c(CCCc3ccc(C(=O)N[C@@H](CCC(=O)O)C(=O)O)cc3)c[nH]c2n1 [Working Example 4, N-[4-[3-(2,4-diamino-7H-pyrrolo [2,3-d]pyrimidin-5-yl)propyl]benzoyl]-L-glutamic acid] as the compound, how does the IC50 [2] read?
**A.** 0.0003 µg/mL (≈ 0.681 nM)

**Q.** With Nc1nc(N)c2c(CCCc3ccc(C(=O)N[C@@H](CCC(=O)O)C(=O)O)cc3)c(O)[nH]c2n1 [Working Example 6, N-[4-[3-(2,4-diamino-6-hydroxy-7H-pyrrolo[2,3-d]pyrimidin-5-yl)propyl]benzoyl]-L-glutamic acid] as the compound, how does the IC50 [2] read?
**A.** 0.08 µg/mL (≈ 175 nM)

**Q.** With Nc1nc(O)c2c(n1)NCC2CCCc1ccc(C(=O)N[C@@H](CCC(=O)O)C(=O)O)cc1 (stereo partly drawn) [Working Example 14, N-[4-[3-(2-amino-4-hydroxy-5,6-dihydropyrrolo[2,3-d]pyrimidin-5-yl)propyl]benzoyl]-L-glutamic acid] as the compound, how does the IC50 [3] read?
**A.** > 20 µg/mL

**Q.** And the IC50 [4]?
**A.** 0.04 µg/mL

**Q.** For Nc1nc(N)c2c(n1)NCC2CCCc1ccc(C(=O)N[C@@H](CCC(=O)O)C(=O)O)cc1 (stereo partly drawn) [Working Example 16, N-[4-[3-(2,4-diamino-5,6-dihydropyrrolo[2,3-d]pyrimidin-5-yl)propyl]benzoyl]-L-glutamic acid], which IC50 [2] is on record?
**A.** 0.0006 µg/mL (≈ 1.36 nM)
